Our source for the IC50 values is patent US11945822B2, “Pyrazolo-triazine and/or pyrazolo-pxrimidine derivatives as selective inhibitor of cyclin dependent kinase” (QURIENT CO., LTD., priority 2018, dated 2024).

The subject of one assay is A2780. Briefly: Cellular A2780 viability assay (CellTiter-Glo, 72 hours). Type of assay: cell-based. The following applies: Homo sapiens. The method in brief:
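Compound exposure lasted 72 h at 37° C, 5% CO2, over 0.0015–10 uM, DMSO kept under 0.1%, with dosing 24 h after seeding. Seeding: A2780 1×10^3, OVCAR-3 5×10^3, MM.1S 1×10^4 cells/well in 10% FBS RPMI-1640. Duplicate CellTiter-Glo luminescence readout.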

In a further assay the target is T1, CDK1/Cyclin B (Homo sapiens, UniProt P06493).
T1 construct: purchased Invitrogen PR4768C
Put plainly: Enzymatic assay for CDK1 (FRET based LANCE Ultra kinase assay). The following applies: read-out: CDK1 enzymatic activity (IC50 range). The format is biochemical. A digest of the protocol:
(§1)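 Each CDK complex ([…]) phosphorylated 68 nM ULight-MBP peptide with ATP at Km for 60 min at 23° C., against 8 compound doses (4-fold dilutions). EDTA/Eu-anti-phospho-MBP detection, 60 min, then TR-FRET emission at 615 and 665 nm.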

A further assay has as its system MV4-11. Put plainly: Cellular MV4-11 viability assay (CellTiter-Glo, 72 hours). The format is cell-based. The following applies: Homo sapiens. The method in brief:
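Mycoplasma-tested cells, seeded at densities chosen for each line, received compound or DMSO vehicle (under 0.1% final) for 72 hours. Duplicate cultures were then read for viability by CellTiter-Glo luminescence.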
(In general: In ATP-based viability assays light output follows the ATP content of the culture.)

A further assay concerns OVCAR-3. Put plainly: Cellular OVCAR-3 viability assay (CellTiter-Glo, 72 hours). The format is cell-based. The following applies: Homo sapiens. An excerpt:
Human T-cell acute lymphoblastic leukemia cell line, MOLT-4 (ATCC, Cat #CRL-1582), Human multiple myeloma cell line, RPMI-8226 (Invitrogen, Cat #22400-089) and MM.1S (ATCC, Cat #CRL-2974), NSCLC (Non-small cell lung cancer) cell line H460 (ATCC, Cat #HTB-177), Human colon colorectal carcinoma cell line HCT116 (ATCC, Cat #CCL-247), Human acute monocytic leukemia cell line MV4-11 (ATCC, Cat #CRL-9591), OVCAR-3 (ATCC, Cat #HTB-161) and A2780 (ECACC, Cat #93112519) were obtained from ATCC. Cells were grown in RPMI-1640 media (Invitrogen, Cat #22400-089) supplemented with 10% FBS (Invitrogen, Cat #10099141) and 1% penicillin/streptomycin (Invitrogen, Cat #15070063) and cultured at 37° C., 5% CO2 in a humidified chamber. All cell lines were routinely tested for mycoplasma.
The effect of the CDK7 inhibitor to inhibit the growth of target cancer cells was evaluated through the 72 hours time period of viability assay. Briefly, the candidate cell line ware plated in 96 well plate at the following density of cells respectively. 1×10^4 cells/well for MOLT-4, RPMI-8226, MV4-11 and MM.1S, 5×10^3 for H460, HCT116 and OVCAR-3 and IX 10^3 for A2780. After 24 hours, the cells were treated with various concentrations of the compound (ranging from 0.0015 uM to 10 uM). DMSO solvent without compound served as a control and final DMSO concentration less than 0.1%. After 72 hours of incubation at 37° C., 5% CO2 incubator, cells were analyzed for the viability using the CellTiter-Glo Luminescent Cell Viability Assay (Promega, Cat #G7570). All viability assays were performed in duplicate and Luminescence was read using an Envision (Perkin Elmer, USA). Data was analyzed using XLfit software.

A further assay addresses T2, CDK2/Cyclin A (Homo sapiens, UniProt P24941).
T2 construct: purchased Invitrogen PV6290
Briefly: Enzymatic assay for CDK2 (FRET based LANCE Ultra kinase assay). Type of assay: biochemical. The settings on record: read-out: CDK2 enzymatic activity (IC50 range). The method in brief: as §1
(In TR-FRET formats the signal depends on donor and acceptor labels being close together.)

Broadly, the IC50 is the midpoint of a concentration-inhibition curve.

T1 sequence (P06493 whole entry): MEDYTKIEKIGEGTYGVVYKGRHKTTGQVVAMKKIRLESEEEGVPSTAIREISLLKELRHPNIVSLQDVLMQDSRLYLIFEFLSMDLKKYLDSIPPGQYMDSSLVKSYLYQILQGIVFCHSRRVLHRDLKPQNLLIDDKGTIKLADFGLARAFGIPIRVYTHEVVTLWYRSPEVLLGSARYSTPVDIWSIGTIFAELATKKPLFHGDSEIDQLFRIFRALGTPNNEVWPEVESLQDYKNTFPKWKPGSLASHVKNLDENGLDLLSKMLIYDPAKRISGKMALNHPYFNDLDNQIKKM
T1 sequence (P14635 whole entry partner): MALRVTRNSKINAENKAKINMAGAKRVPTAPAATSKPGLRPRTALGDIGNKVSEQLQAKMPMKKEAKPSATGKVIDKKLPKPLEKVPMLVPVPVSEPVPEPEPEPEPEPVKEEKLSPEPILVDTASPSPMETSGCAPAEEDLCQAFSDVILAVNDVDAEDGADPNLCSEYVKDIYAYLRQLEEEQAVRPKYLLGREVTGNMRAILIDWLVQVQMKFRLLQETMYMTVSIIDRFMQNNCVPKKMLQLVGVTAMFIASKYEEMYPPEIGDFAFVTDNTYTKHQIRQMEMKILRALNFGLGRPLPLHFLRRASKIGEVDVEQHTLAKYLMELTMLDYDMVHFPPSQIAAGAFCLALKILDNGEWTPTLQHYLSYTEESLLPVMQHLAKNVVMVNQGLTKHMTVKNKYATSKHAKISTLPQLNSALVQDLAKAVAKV

Take `CC(C)c1cnn2c(NCc3c(Cl)cccc3-n3ccc(C(C)(C)O)n3)nc(N3CCC(N)CC3)nc12` [Compound 210]: the 50% inhibitory concentration (IC50) is not above 1000 nM with A2780; more than 1000 nM at CDK1/Cyclin B; less than 1000 nM in the assay with MV4-11; not above 1000 nM in the assay on OVCAR-3; more than 1000 nM at CDK2/Cyclin A.
